Here are results for 11 compounds from PMC12426930, “Antioxidant, Hypotensive, and Antidiabetic Breakthroughs: Bromelain Hydrolysis Unlocks Quinoa’s Peptide Potential - In Silico and In Vitro Approach” (Journal of Agricultural and Food Chemistry, 2025).

As a reminder, the inhibition is how much of the control response was suppressed. Lower therefore signals a response near the control. Broadly, the IC50 is the concentration that inhibits the measured activity by half.

In experiment [1] the test system is porcine pancreatic α-amylase (PPA). Kind of experiment: α-Amylase inhibition. It is filed as biochemical. As to conditions: CNPG3 substrate, 405 nm, 37 °C, mean ± SD, n = 9. On the procedure:
α-Amylase inhibition activity was performed using the 3,5-dinitrosalicylic acid (DNS) assay according to Zulfiqar et al. […] Then, 50 μL of substrate (2-chloro-4-nitro-[…] (CNPG3) (2 mM)) was added per well. Finally, absorbance was recorded at 405 nm (SPARK-10M, TECAN, Switzerland) at 37 °C for 10 min in 1-min intervals. The percentage of enzyme inhibition was calculated in relation to 100% enzymatic activity in the negative control (phosphate-buffered saline (PBS) buffer, enzyme, and substrate).

For experiment [2], the system named is rat intestinal acetone α-glucosidase. Kind of experiment: α-Glucosidase inhibition. The class given is biochemical. As to conditions: 2 mM maltose, pH 6.9, 37 °C, mean ± SD, n = 9. How it is done: α-Glucosidase inhibition assay was measured following the method of Vilcacundo et al., with slightly modifications. First, 100 μL of sample ([…]), positive control (1 mM acarbose), and/or negative control (Milli-Q-water), were added to 50 μL of rat intestinal acetone α-glucosidase (1 U/mL in 0.1 M, maleate buffer pH 6.9), and the mixture was incubated at 37 °C for 5 min. Then, 50 μL of substrate (2 mM maltose) was added into each tube, which was performed in a Thermomixer (37 °C, 1000 rpm, for 30 min). Finally, the reaction was stopped at 100 °C for 5 min. The glucose concentration in the reaction was measured using GOPOD (glucose oxidase/peroxidase) from Megazyme, with absorbance measured at 560 nm (Gen5 software, version 1.1, BioTek Instruments, Winooski, VT, USA). The percentage of inhibition was calculated relative to the non-inhibited control (negative control).

The test system of another experiment is human DPP-IV. The experiment can be described thus: DPP-IV inhibitory activity. As to conditions: H-Gly-Pro-pNA, 37 °C, mean ± SD, n = 9. It is filed as biochemical. On the procedure:
Dipeptidyl peptidase-IV (DPP-IV) inhibitory activity was measured following the method by Vilcacundo et al., with slightly modifications. […] For the negative control 70 μL of Tris Buffer was added. Finally, 100 μL of substrate (H-Gly-Pro-pNA, 100 mM) was added to all wells. The reaction was performed at 37 °C in the microplate reader (BioTek Instruments, Winooski, VT, USA), and the reaction was read at 405 nm for 30 min, with reading intervals of 2 min. Finally, data were plotted and fitted to a logarithmic regression to obtain dose–response curves.

Experiment [3] in a line: Oxygen radical absorbance capacity (ORAC) assay. As to conditions: AAPH, fluorescein, 37 °C, 150 min. How it is done: Oxygen radical absorbance capacity (ORAC) assay was performed following the method of Carvalho-Oliveira et al. Briefly, 30 μL of peptide (different concentrations 50–1000 μM) or standard (Trolox at 0–160 μM) were placed in a black 96-well plate. The reaction mixture comprised 180 μL of fluorescein (116.9 nM) and 90 μL of 2,2’-azobis(2-amidinopropane) dihydrochloride (AAPH) (40 mM). Finally, the fluorescence was recorded every 2 min for 150 min at excitation and emission wavelengths of 485 and 520 nm, respectively. All reactions were performed at 37 °C. The results were expressed as μmol Trolox equivalent (TE)/μmol of peptide. Quantification and interpretation of the data were done by Gen5 software, version 1.1 (BioTek Instruments, Winooski, VT, USA).

A short description of experiment [4]: Trolox equivalent antioxidant capacity (TEAC, ABTS radical cation). As to conditions: 734 nm, 6 min, mean ± SD, n = 9. On the procedure: The Trolox equivalent antioxidant capacity (TEAC) analysis was performed as described by Sanchez-Velazquez et al. In order to produce ABTS (2,2’-azino-bis(3-ethylbenzthiazoline-6-sulfonic acid) radical cation (ABTS^ ●+ ), ABTS (7 mM) were mixed with potassium persulfate (2.45 mM) in the dark at room temperature (RT 18–21 °C) for 16 h. […] Finally, the reaction was measured at 0 and 6 min at 734 nm (SPARK-10M, TECAN, Switzerland). The percentage of inhibition was calculated as follows: %TEACinhibition=Abs sample0min−Abs sample6min/Abs sample0min−(Abs blank0min−Abs blank6min/Abs blank0min)×100

A further experiment in a line: Fe^2+ chelation assay. As to conditions: 125 μM; ferrozine, pH 4.9, 37 °C, 10 min; mean ± SD, n = 9. On the procedure:
Fe^2+ chelation assay was measured according to Sanchez-Velazquez et al. with slightly modifications. 25 μL of sample (synthetic peptides, […]) or positive control (EDTA, 0.1 μg/μL) was added to 225 μL of buffer (sodium acetate, 100 mM, pH 4.9), then 15 μL of iron solution (0.1%, w/v) and 9 μL of ferrozine (40 mM) were added to start the reaction. For the blank well, 250 μL of buffer was added to the iron solution and ferrozine. The reaction was incubated 10 min at 37 °C and then read at 562 nm (SPARK-10M, TECAN, Switzerland). Fe^2+ chelating activity was calculated as described previously for copper.

For experiment [5], the system named is 15-LOX enzyme (soybean lipoxygenase). The experiment can be described thus: Lipoxygenase inhibitor screening assay (LOX). The class given is biochemical. As to conditions: 31.25 μM; linoleic acid 1 mM, RT, 490 nm. How it is done:
Lipoxygenase inhibitory activity assay (LOX) was determined following the manufacturer’s instructions (#760700). Thus, peptide concentrations (31.25–125 μM) were prepared with the assay buffer and tested in triplicate. First, 10 μL of the peptides at each concentration was mixed with 90 μL of 15-LOX enzyme (soybean lipoxygenase) in a 96-well plate. Then, three wells each contained assay buffer as blank (without enzyme), assay buffer as vehicle (with enzyme), and 15-LOX as positive control. Afterward, 10 μL of linoleic acid (1 mM) (substrate) was added to all wells and shaken for 10 min at RT. Finally, 100 μL of chromogen was added to all wells, and the plate was sealed and shaken for an additional 5 min at RT. The final reaction was measured at 490 nm, and the percentage of inhibition was calculated as. %inhibition=[1−Correctedvaluesofpeptide/Correctedvaluesofvehicle]×100

The test system of experiment [6] is angiotensin I converting enzyme. Kind of experiment: ACE-I inhibitory activity (fluorometric kit CS0002). It is filed as biochemical. As to conditions: for ACE-I inhibition: fluorometric kit, 37 °C, mean ± SD, n = 9. On the procedure:
ACE-I inhibitory assay was determined by ACE-I activity assay kit (fluorometric, CS0002). This assay is based on the hydrolysis of angiotensin I by ACE to yield angiotensin II. Briefly, all reagents were diluted in the assay buffer, and a total of 50 μL of peptide sample, positive control (captopril PHR1307), and assay buffer (blank) were added to a 96-well black plate. The standard was added at 0, 0.1, 0.2, 0.3, 0.4, 0.5, 0.6, and 0.8 nmol and adjusted to a final volume of 100 μL. […] Finally, fluorescence (λex, 320 nm; λem, 405 nm) was measured in five cycles for 5 min. Linear regressions were determined to calculate the enzymatic activity for each sample per concentration. Thus, one unit was defined as the amount of enzyme that releases 1 nmol of fluorescent substrate in 1 min at 37 °C. Finally, the inhibition (%) of each peptide and positive control was determined using regression analysis of the corresponding dose–response curves.

The subject of another experiment is ACE-I. As to conditions: pearl garlic peptides; ref Yudho-Sutopo et al. [121]; read-out: ACE-I inhibition IC50; cited from earlier work. The text has this: Yudho-Sutopo et al. reported the ACE-I inhibitory activity of four synthetic peptides from pearl garlic (DHSTAVW, KLAKVF, KLSTAASF, and KETPEAHVF). […] According to Yudho-Sutopo et al., the hydrophobic amino acid in the C-terminal and amino acids with a positively charged side-chain amino group, like in DHSTAVW, are determinants in the inhibition of ACE-I. Furthermore, a study by Zheng et al. reported an ACE-I inhibitory peptide – RGQVIYVL – from Chenopo ...

For the next experiment, the system named is LOX. As to conditions: cited from earlier work; for anti-LOX activity (inhibition): 1 mg/mL, velvet antler blood peptides, ref Ding et al. [119]. From the text: Ding et al. evaluated eight peptides from velvet antler blood (LFP, FPH, EHF, VGYP, FSAL, LSQKFPK, HHGGEFTPV, and LKECCDKPV) for anti-LOX activity. […] Karas et al. reported six LOX-inhibitory peptides from millet grain (RLARAGLAQ, YGNPVGGVGH, EQGFLPGP ...

Where “and” joins values, the source holds several entries; their conditions need not be identical. Identical values can stand only once. Entries after “also recorded” stand apart in the source; their conditions may differ. Marks after values point to notes of the source that are not given here.

Consider “NIYQIS [quinoa 11S globulin peptide, custom-synthesized by GenScript, purity 95%]”, for which the α-amylase inhibition result in [1] (300 μM) was “ND (no inhibitory effect was observed at the given concentration)”; in experiment [1] (400 μM) it was “ND (no inhibitory effect was observed at the given concentration)”; in experiment [1] (500 μM) it was “did not show significant α-amylase inhibition; also recorded: ND (no inhibitory effect was observed at the given concentration)”. The results for the α-glucosidase inhibition in experiment [2] (300 μM) and in experiment [2] (500 μM) were 7.72 ± 0.95^c % and 11.93 ± 0.92^b %, respectively. Further, the inhibition in experiment [2] (400 μM) turned out to be 10.4 ± 0.93%. In addition, the results for the DPP-IV inhibition result with human DPP-IV (125 μM), in the experiment with human DPP-IV (250 μM) and with human DPP-IV (500 μM) were “ND (no inhibitory effect was observed at the given concentration)”, 12.22 ± 0.50^b % and 16.36 ± 0.70^a %, respectively. In addition, the ORAC in [3] is 0.75 μmol TE/μmol peptide; in experiment [3] (mean ± SD, n = 9), 0.75 μM TE/μM Peptide and 0.75 ± 0.02^a μM TE/μM Peptide. Moreover, the “TEAC inhibition (ABTS^●+ inhibition)” value in experiment [4] (125 μM) is listed as 7.87 ± 0.10%; in experiment [4] (250 μM) it was 7.39 ± 0.19%; in [4] (500 μM) it was 8.19 ± 0.38%. The “Fe^2+ chelating activity” value in “Fe^2+ chelation assay” is on record as 9.04 ± 0.96%. This compound yielded an LOX inhibition in [5] of 16.20%. For the same compound, the ACE-I inhibition in experiment [6] (125 μM) was 17.20 ± 0.28^d %; in experiment [6] (250 μM) it was 31.7 ± 2.40^b %; in [6] (500 μM) it was 53.0 ± 1.41^a %.

Regarding `C[C@H](CS)C(=O)N1CCC[C@H]1C(=O)O` [commercial ACE-I inhibitor, reference compound], the “ACE-I inhibition, reference inhibitor” value in [6] (50 µM) was determined as 80.1%.

For “KLAKVF [synthetic peptide from pearl garlic, Yudho-Sutopo et al]”, the IC50 in the experiment with ACE-I was 77.2 µM.

With “HHGGEFTPV [peptide from velvet antler blood, Ding et al]”, the “anti-LOX activity (inhibition)” value in the experiment with LOX was not above 12%.

For “KETPEAHVF [synthetic peptide from pearl garlic, Yudho-Sutopo et al]”, the IC50 in the experiment on ACE-I is 455 µM.

In the case of GQLGEHGGAGMG, in the experiment on LOX (millet grain peptides, ref Karas et al. [120]), the LOX inhibition is on record as 50%.

For “LSQKFPK [peptide from velvet antler blood, Ding et al]”, the “anti-LOX activity (inhibition)” value in the experiment with LOX is recorded as not above 12%.

For “VGYP [peptide from velvet antler blood, Ding et al]”, the “anti-LOX activity (inhibition)” value in the experiment on LOX was not above 12%.

Take “DHSTAVW [synthetic peptide from pearl garlic, Yudho-Sutopo et al]”: in the experiment with ACE-I, the IC50 was 2.8 µM.

Turning to “LKECCDKPV [peptide from velvet antler blood, Ding et al]”, the “anti-LOX activity (inhibition)” value in the experiment on LOX is given as not above 12%.

As to “KLSTAASF [synthetic peptide from pearl garlic, Yudho-Sutopo et al]”, the IC50 in the experiment on ACE-I was 172 µM.
